Results taken from article PMC12523843, “Kuwanon A Targeted YWHAB in Hepatocellular Carcinoma Cells to Inhibit the Raf/MEK/ERK Signaling Pathway” (Cells, 2025).
Read-outs that look alike come from different tables or passages of the source.

Tests used:
[1] = system: MHCC97H and SMMC 7721 cells; test: CCK8 cell viability screen of mulberry active substances; type: cell-based, human; settings: 10 μM, 48 h
Protocol: The CCK8 assay is used to investigate the effect of compounds on cell viability by measuring the amount of formazan dye. Firstly, 8000 cells were inoculated into each well of the 96-well plate with three replicates per condition. At the same time, add the corresponding mulberry active substances. After 48 h of incubation, 20 μL of the Cell Counting Kit-8 (CCK8) reagent (Beyotime, Shanghai, China) was added to each well. After being cultured under 37 °C and 5% carbon dioxide for 2–3 h, the absorbance was measured at 450 nm.

[2] = system: MHCC97 H cells; test: MTT IC50 determination in MHCC97 H; type: cell-based, human; settings: MTT method, read-out: IC50 in MHCC97 H (screen)
Protocol: (§1) Cell viability was assessed using MTT experiments. Cells, together with KA, were seeded into 96-well plates at a density of 2000 cells per well with three replicates per condition. DMSO was used as a control. At designated time points, 20 μL of MTT (Sigma, St. Louis, MO, USA) solution was added to each well and incubated for 3 h. After removing the culture medium, 200 μL of DMSO was added to dissolve the formazan crystals. The absorbance was then measured using a microplate reader at a wavelength of 560 nm.

[3] = system: normal human liver cells (L-O2); test: MTT IC50 determination in normal liver cells; type: cell-based; settings: L-O2, MTT method
Protocol: as §1

[4] = system: MHCC97 H cells; test: Transwell migration screen of selected compounds; type: cell-based, human; settings: compounds at an IC50 concentration
Protocol: (§2) The Transwell assay measured the migration and invasion of cells by calculating the number of cells that passed through the material. Prior to the Transwell migration assay, cells were serum-starved in FBS-free culture medium for 24 h. The cells were then detached using trypsin, washed 1–2 times with PBS, and resuspended in DMEM. Approximately 50,000–100,000 cells were seeded into the upper chamber of the Transwell insert. The lower chamber was filled with 600 μL of complete medium containing the test compound. The Transwell system was incubated for 12 h under standard culture conditions (37 °C, 5% CO2). After incubation, the migrated cells on the lower membrane surface were fixed with 4% paraformaldehyde (PFA) and stained with 0.1% crystal violet. Non-migrated cells remaining in the upper chamber were carefully removed with a cotton swab. Finally, the stained cells were visualized under a microscope. If matrix gel was needed, it should be added according to the instructions (Beyotime, Shanghai, China) before the cells were seeded.

[5] = system: HCC cells (MHCC97 H and SMMC 7721); test: Transwell migration (without Matrix-Gel) and invasion (with Matrix-Gel) assay; type: cell-based, human; settings: Sorafenib 10 μM alone or 10 μM KA and 10 μM Sorafenib, 48 h
Protocol: as §2, with “The Transwell system was incubated for 12 h under standard culture conditions (37 °C, 5% CO2).” left out

[6] = system: MHCC97 H cells; set-up: method as in MCE website (https://www.medchemexpress.cn/); settings: ref MCE website (https://www.medchemexpress.cn/); read-out: IC50 of Sorafenib in MHCC97 H; cited from earlier work
[7] = system: SMMC 7721 cells; set-up: method as in MCE website (https://www.medchemexpress.cn/); settings: ref MCE website (https://www.medchemexpress.cn/); read-out: IC50 of Sorafenib in SMMC 7721; cited from earlier work
[8] = molecular target: T1, YWHAB (tyrosine 3-monooxygenase/tryptophan 5-monooxygenase activation protein beta), endogenous in HCC cells (human (endogenous in MHCC97 H and SMMC 7721)), P31946; test: native gel or EMSA; Blue native PAGE of cell lysates (IP cell lysis buffer, Coomassie G-250), then immunoblot; cells treated with KA or DMSO (less dimer with KA); settings: remark: other sources report otherwise
T1 chain: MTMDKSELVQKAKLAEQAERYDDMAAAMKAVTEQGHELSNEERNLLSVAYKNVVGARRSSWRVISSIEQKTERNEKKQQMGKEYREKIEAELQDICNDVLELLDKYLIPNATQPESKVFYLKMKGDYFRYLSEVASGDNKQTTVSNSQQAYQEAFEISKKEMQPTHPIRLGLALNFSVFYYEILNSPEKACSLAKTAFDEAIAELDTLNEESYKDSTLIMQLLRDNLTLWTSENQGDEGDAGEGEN

[9] = molecular target: T2, FLAG-YWHAB, P31946; test: as above; settings: remark: other sources report otherwise
T2 chain: T1 chain

Molecule: Cc1cc2c3c(c1)-c1c(O)cc(-c4cc5ccc(O)cc5o4)cc1OC3(c1ccc(O)cc1O)Oc1cc(O)ccc1-2 (centres unmarked) [Albanol B, albanol B]
- viability of HCC cells (CCK8) [1]: significantly inhibited the viability of HCC cells
- IC50 [2]: < 20 µM
- IC50 in normal liver cells [3]: relatively low
- migration of MHCC97 H (Transwell) [4]: significantly inhibited the migration of MHCC97 H

Molecule: CC(C)=CCc1c(-c2ccc(O)cc2O)oc2c([C@H]3C=C(C)C[C@@H](c4ccc(O)cc4O)[C@@H]3C(=O)c3ccc(O)cc3O)c(O)cc(O)c2c1=O [Kuwanon G, kuwanon G]
- IC50 [2]: < 20 µM

Molecule: CC(C)=CCC/C(C)=C/Cc1c(O)ccc(-c2oc3cc(O)cc(O)c3c(=O)c2CC=C(C)C)c1O [L8-06, 3'-geranyl-3-prenyl-2',4',5,7-tetrahydroxyflavone]
- IC50 ([2]; Homo sapiens, MHCC97H): < 20 µM

Molecule: CC(C)=CCc1c(-c2ccc(O)cc2O)oc2c3c(cc(O)c2c1=O)OC(C)(C)C=C3 [Morusin]
- IC50 ([2]; Homo sapiens, MHCC97H): < 20 µM

Molecule: CC(C)(O)CCc1c(-c2ccc(O)cc2O)oc2c3c(cc(O)c2c1=O)OC(C)(C)C=C3 [Morusinol]
- IC50 ([2]; Homo sapiens, MHCC97H): < 20 µM

Molecule: CC(C)=CCc1c(-c2ccc(O)cc2O)oc2c(CC=C(C)C)c(O)cc(O)c2c1=O [Mulberrin]
- IC50 [2]: < 20 µM

Molecule: CNC(=O)c1cc(Oc2ccc(NC(=O)Nc3ccc(Cl)c(C(F)(F)F)c3)cc2)ccn1 [Sorafenib]
- HCC cell migration/invasion (Transwell, polycarbonate membrane or Matrigel) [5]: no significant effect
- IC50 [6]: ~10 µM
- IC50 [7]: ~10 µM

Molecule: sanggenol L
- viability of HCC cells (CCK8) [1]: significantly inhibited the viability of HCC cells
- IC50 [2]: < 20 µM
- migration of MHCC97 H (Transwell) [4]: significantly inhibited the migration of MHCC97 H

Molecule: sanggenone C
- viability of HCC cells (CCK8) [1]: significantly inhibited the viability of HCC cells
- IC50 [2]: < 20 µM

Molecule: sanggenone D
- IC50 [2]: < 20 µM

B1: YWHAB (tyrosine 3-monooxygenase/tryptophan 5-monooxygenase activation protein beta), endogenous in HCC cells, P31946 1-246 (natural protein)
chain: T1 chain
- stoichiometry N [8]: 2

B2: FLAG-YWHAB, P31946 1-246 (natural protein)
chain: T1 chain
- stoichiometry N [9]: 2
